The species named for the experiment is Rattus norvegicus. Kind of experiment: Dose response for [Ca2+] release from rat brain microsomes was determined. Type of experiment: functional.
Regarding `O=P1([O-])OC[C@H]2OC([C@H](O)[C@@H]2O)[n+]2ccn3cnc4c(ncn4C4O[C@H](COP(=O)(O)O1)[C@@H](O)[C@H]4O)c32`, the EC50 (commonly the concentration that produces a half-maximal response) stood at 8 µM.

With `Nc1c2ncn3c2nc[n+]1[C@@H]1O[C@H](COP(=O)([O-])OP(=O)(O)OC[C@H]2O[C@@H]3[C@H](O)[C@@H]2O)[C@@H](O)[C@H]1O`, the EC50 amounted to 22 µM.

Compound `O=P(O)(O)O[C@@H]1[C@H](O)[C@H](O)[C@@H](OP(=O)(O)O)[C@H](OP(=O)(O)O)[C@H]1O` [INS(1,4,5)P3] gave an EC50 of 0.09 µM.
